Assay results reported in ChEMBL document CHEMBL6103622 (J Med Chem, 2025).
Active and inactive are the calls of the source. The calls are words filed in the database; no cut-off is given here.

Key:
[1] = system: Colorectal cancer organoid; assay: Antitumor activity against patient derived CRC organoids assessed as change in morphology of organoids at 10 to 100 nM incubated for 72 hrs; assay type: functional, tissue-based; conditions: Homo sapiens, Colorectum, dose 10-100 nM
MC-38 [2] = assay: Induction of apoptosis in mouse MC38 cells assessed as early apoptotic cells at 10 nM by Annexin V/PI staining based flow cytometric analysis (reference value: 1.91 %); assay type: functional
MC-38 [3] = assay: Induction of apoptosis in mouse MC38 cells assessed as late apoptotic cells at 100 nM by Annexin V/PI staining based flow cytometric analysis (reference value: 0.85 %); assay type: functional
[4] = system: Colorectal cancer organoid; assay: Antitumor activity against patient derived CRC organoids assessed as reduction in number of organoids at 10 to 100 nM incubated for 72 hrs; assay type: functional, tissue-based; conditions: Homo sapiens, Colorectum, dose 10-100 nM
MC-38 [5] = assay: Antitumor activity against mouse MC38 cells allografted in C57BL/6 mouse model assessed as downregulation of […] mRNA expression in tumor at 10 to 20 mg/kg, ip administered once daily for 14 days by qPCR analysis; assay type: functional, organism-based; conditions: dose 10-20 mg/kg, time 14.0 day
MC-38 [6] = assay: Induction of apoptosis in mouse MC38 cells cocultured with condition medium of M2 macrophages assessed as late apoptotic cells at 10 nM by Annexin V/PI staining based flow cytometric analysis (reference value: 1.66 %); assay type: functional
BMDM [7] = assay: Induction of repolarization of M2 like macrophage into M1 phenotype in female C57BL/6 mouse BMDM cells assessed as decrease in Chil3l mRNA expression at 10 to 100 nM stimulated with mouse IL4/IL-13 for 24 hrs followed by compound addition and measured after 24 hrs by qPCR analysis; assay type: functional, cell-based; conditions: dose 10-100 nM
BMDM [8] = assay: Induction of repolarization of M2 like macrophage into M1 phenotype in female C57BL/6 mouse BMDM cells assessed as increase in Il1 mRNA expression at 10 to 100 nM stimulated with mouse IL4/IL-13 for 24 hrs followed by compound addition and measured after 24 hrs by qPCR analysis; assay type: functional, cell-based; conditions: dose 10-100 nM
[9] = target: T1, Macrophage colony-stimulating factor 1 receptor (Homo sapiens, UniProt P07333); assay: Binding affinity to recombinant CSF-1R (unknown origin) assessed as association rate constant by SPR analysis
MC-38 [10] = assay: Induction of apoptosis in mouse MC38 cells cocultured with condition medium of M2 macrophages assessed as early apoptotic cells at 100 nM by Annexin V/PI staining based flow cytometric analysis (reference value: 3.16 %); assay type: functional
[11] = target: T1, Macrophage colony-stimulating factor 1 receptor; assay: Binding affinity to recombinant CSF-1R (unknown origin) assessed as dissociation rate constant by SPR analysis
[12] = Oral bioavailability in Sprague-Dawley rat at 10 mg/kg; assay type: ADME, organism-based; conditions: in vivo
[13] = target: T2, Macrophage colony-stimulating factor 1 receptor (Mus musculus) (UniProt P09581); assay: Inhibition of CSF-1R signaling pathway activation in female C57BL/6 mouse BMDM cells assessed as reduction in ERK phosphorylation preincubated with compounds for 4 hrs followed by M-CSF stimulation and measured after 30 mins by Western blot analysis; assay type: cell-based; conditions: dose 10-100 nM, time 4.5 hrs
T2 sequence (whole entry): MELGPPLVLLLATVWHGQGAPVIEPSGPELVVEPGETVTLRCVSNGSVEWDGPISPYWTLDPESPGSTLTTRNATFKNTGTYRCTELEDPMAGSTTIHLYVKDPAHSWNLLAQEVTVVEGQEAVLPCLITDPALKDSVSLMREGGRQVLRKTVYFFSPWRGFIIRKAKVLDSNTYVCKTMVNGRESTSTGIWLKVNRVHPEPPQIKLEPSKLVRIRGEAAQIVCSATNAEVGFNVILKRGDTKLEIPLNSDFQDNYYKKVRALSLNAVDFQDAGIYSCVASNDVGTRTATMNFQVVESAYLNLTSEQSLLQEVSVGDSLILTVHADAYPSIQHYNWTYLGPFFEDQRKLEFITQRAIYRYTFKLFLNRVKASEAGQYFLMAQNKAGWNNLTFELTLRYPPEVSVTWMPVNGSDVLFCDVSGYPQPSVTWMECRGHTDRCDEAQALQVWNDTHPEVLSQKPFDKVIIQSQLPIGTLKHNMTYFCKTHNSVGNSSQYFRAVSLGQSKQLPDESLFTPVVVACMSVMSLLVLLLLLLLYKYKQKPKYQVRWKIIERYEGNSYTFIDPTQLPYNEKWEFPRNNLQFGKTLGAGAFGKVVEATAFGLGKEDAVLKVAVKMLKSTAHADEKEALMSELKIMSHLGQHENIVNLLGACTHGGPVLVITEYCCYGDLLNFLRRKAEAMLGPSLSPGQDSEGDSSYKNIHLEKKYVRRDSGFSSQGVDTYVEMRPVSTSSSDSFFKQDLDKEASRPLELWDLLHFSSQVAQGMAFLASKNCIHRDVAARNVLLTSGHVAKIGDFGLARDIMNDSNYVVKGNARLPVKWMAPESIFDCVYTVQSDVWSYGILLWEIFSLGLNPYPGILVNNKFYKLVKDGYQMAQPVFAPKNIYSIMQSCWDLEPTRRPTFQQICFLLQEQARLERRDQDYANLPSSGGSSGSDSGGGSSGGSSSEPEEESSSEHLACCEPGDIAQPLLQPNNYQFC

[14] = target: T2, Macrophage colony-stimulating factor 1 receptor (Mus musculus); assay: Binding affinity to CSF-1R in female C57BL/6 mouse BMDM cells assessed as decrease in protein solubility at 100 nM incubated for 1 hrs in presence of 7 to 15 % of acetone/ethanol/acetic acid mixture by SIP assay; assay type: cell-based
[15] = target: T2, Macrophage colony-stimulating factor 1 receptor (Mus musculus); assay: Inhibition of CSF-1R signaling pathway activation in female C57BL/6 mouse BMDM cells assessed as reduction in AKT phosphorylation at Ser473 residue at 100 nM preincubated with compounds for 4 hrs followed by M-CSF stimulation and measured after 30 mins by Western blot analysis; assay type: cell-based; conditions: time 4.5 hrs
[16] = AUC (0 to infinity) in Sprague-Dawley rat at 1 mg/kg, iv; assay type: ADME, organism-based; conditions: in vivo
[17] = system: Colorectal cancer organoid; assay: Antitumor activity against patient derived CRC organoids cocultured with IL-4/13 stimulated M2 macrophages assessed as reduction in number of organoids at 10 to 100 nM incubated for 72 hrs; assay type: functional, tissue-based; conditions: Homo sapiens, Colorectum, dose 10-100 nM
[18] = system: Colorectal cancer organoid; assay: Antitumor activity against patient derived CRC organoids cocultured with IL-4/13 stimulated M2 macrophages assessed as lytic death state at 10 to 100 nM incubated for 72 hrs; assay type: functional, tissue-based; conditions: Homo sapiens, Colorectum, dose 10-100 nM
MC-38 [19] = assay: Antitumor activity against mouse MC38 cells allografted in C57BL/6 mouse model assessed as reduction in tumor volume at 20 mg/kg, ip administered once daily for 14 days relative to control; assay type: functional; set-up: scale not given: the % may be the effect or the level left; conditions: time 14 day
MC-38 [20] = assay: Induction of apoptosis in mouse MC38 cells cocultured with condition medium of M2 macrophages assessed as early apoptotic cells at 10 nM by Annexin V/PI staining based flow cytometric analysis (reference value: 3.16 %); assay type: functional
BMDM [21] = assay: Induction of repolarization of M2 like macrophage into M1 phenotype in female C57BL/6 mouse BMDM cells assessed as increase in Tnf mRNA expression at 10 to 100 nM stimulated with mouse IL4/IL-13 for 24 hrs followed by compound addition and measured after 24 hrs by qPCR analysis; assay type: functional, cell-based; conditions: dose 10-100 nM
MC-38 [22] = assay: Antitumor activity against mouse MC38 cells allografted in C57BL/6 mouse model assessed as upregulation of Il6 mRNA expression in tumor at 10 to 20 mg/kg, ip administered once daily for 14 days by qPCR analysis; assay type: functional, organism-based; conditions: dose 10-20 mg/kg, time 14.0 day

T1 sequence (P07333 whole entry): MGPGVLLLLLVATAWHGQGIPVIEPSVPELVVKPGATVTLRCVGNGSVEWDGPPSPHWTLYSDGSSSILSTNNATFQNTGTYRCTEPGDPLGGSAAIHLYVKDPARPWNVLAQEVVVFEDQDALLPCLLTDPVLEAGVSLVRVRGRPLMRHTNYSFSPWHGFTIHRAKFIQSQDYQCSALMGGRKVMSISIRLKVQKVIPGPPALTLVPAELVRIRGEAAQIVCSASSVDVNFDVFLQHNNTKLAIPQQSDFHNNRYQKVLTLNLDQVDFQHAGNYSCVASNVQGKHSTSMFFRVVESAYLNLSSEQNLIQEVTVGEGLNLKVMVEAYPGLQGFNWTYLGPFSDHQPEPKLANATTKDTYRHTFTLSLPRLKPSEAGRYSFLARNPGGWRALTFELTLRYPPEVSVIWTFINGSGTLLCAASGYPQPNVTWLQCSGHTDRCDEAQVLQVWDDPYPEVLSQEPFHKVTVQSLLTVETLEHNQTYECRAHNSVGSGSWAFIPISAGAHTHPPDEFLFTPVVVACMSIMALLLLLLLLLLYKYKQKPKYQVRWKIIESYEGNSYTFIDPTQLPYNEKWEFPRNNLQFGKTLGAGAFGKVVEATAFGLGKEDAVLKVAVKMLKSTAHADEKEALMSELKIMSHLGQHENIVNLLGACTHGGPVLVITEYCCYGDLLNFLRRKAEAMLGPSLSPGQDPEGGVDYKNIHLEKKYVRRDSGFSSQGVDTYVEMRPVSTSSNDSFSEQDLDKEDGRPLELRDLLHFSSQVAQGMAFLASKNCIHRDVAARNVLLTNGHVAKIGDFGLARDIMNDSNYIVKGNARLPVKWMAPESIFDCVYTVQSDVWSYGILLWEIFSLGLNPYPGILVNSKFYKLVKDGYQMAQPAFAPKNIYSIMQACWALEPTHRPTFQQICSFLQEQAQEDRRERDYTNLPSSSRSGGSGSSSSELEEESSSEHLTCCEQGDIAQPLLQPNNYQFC

Cc1nc(NC(=O)N[C@@H]2CCCC[C@H]2O)ccc1Oc1c[nH]c2ncc(Cl)cc12
Activity [1]: inactive
Activity (MC-38 [2]): 1.96%
Activity (MC-38 [3]): 1.01%
Activity [4]: inactive
Activity (MC-38 [5]): Active
Activity (MC-38 [6]): 3.25%
Activity (BMDM [7]): Active
Activity (BMDM [8]): Active
Ka [9]: 1.07 10^5/Ms
Activity (MC-38 [10]): 19.91%
koff [11]: 0.00315 s⁻¹
bioavailability [12]: 79.2%
inhibition [13]: Dose-dependent-effect
Activity [14]: Active
inhibition [15]: Active
AUC(0-inf) [16]: 527 ng·h/mL
Activity [17]: Active
Activity [18]: Active
Activity (MC-38 [19]): 54%
Activity (MC-38 [20]): 6.15%
Activity (BMDM [21]): Active
Activity (MC-38 [22]): Active
